Source: US10787413B2, “Derivatives of curcuminoids and use thereof as an anticancer agent” (CHINA MEDICAL UNIVERSITY, priority 2016, dated 2020)

Tests used:
BT-474 = assay: Cell viability, BT-474 breast cancer cells; assay type: cell-based; details: Homo sapiens; BT-474 (Her-2+), treated for 24 h
Protocol: (§1) Cell viability was evaluated by measuring the reduction in MTT to yield blue formazan. Cells were cultured in 96-well plates, allowed to attach overnight, and then treated with compounds. After treatment, MTT solution (1 mg/ml) was added to each well, and plates were incubated for another 4 h. Medium were removed, blue formazan was dissolved in DMSO, and the absorbance was read at 570 nm^20.

MCF-7 = assay: Cell viability, MCF-7 breast cancer cells; assay type: cell-based; details: Homo sapiens, MCF7; MCF-7 (ER+/PR+), treated for 24 h
Protocol: as §1

MDA-MB-231 Xenograft = assay: In vivo antitumor activity, MDA-MB-231 Xenograft nude mice model
Protocol: Female nu/nu mice (5 weeks old) were from National Laboratory Animal Center, Taipei, Taiwan. Mice were maintained under the procedures and guidelines from the Institutional Animal Care and Use Committee of the National Health Research Institutes, Taipei, Taiwan. All experiments were supervised under the Institutional Animal Care and Use Committee, China Medical University, Taichung, Taiwan. MDA-MB-231 breast cancer cells (5×10^6 cells per mouse) were suspended in 0.1 ml of Matrigel solution (50% (v/v) Matrigel in PBS) and inoculated into the mammary fat pads of the mice. […] Compounds was administered P.O. once every day for 32 days. Tumor size and mouse body weight were measured once every 4 days, and tumor volume (mm3) was calculated using the equation: length×(width)^2×0.5. At the end of experiments, mice were sacrificed and tumor nodules were dissected and weighed.

COc1cc(/C=C/C(=O)/C=C(O)/C=C/c2ccc(OC(=O)C(C)(CO)CO)c(OC)c2)ccc1OC(=O)C(C)(CO)CO [Compound 21a, ((1E,3Z,6E)-3-Hydroxy-5-oxohepta-1,3,6-triene-1,7-diyl)bis(2-methoxy-4,1-phenylene) bis(3-hydroxy-2-(hydroxymethyl)-2-methylpropenoate)]
IC50 (BT-474): 6.15 ± 0.87 µM
IC50 (MCF-7): 6.13 ± 0.51 µM
antitumor activity, fold more potent than curcumin (MDA-MB-231 Xenograft; MDA-MB-231 Xenograft nude mice model): 10 fold
antitumor activity (MDA-MB-231 Xenograft; PO 5 mg/kg/day): significant antitumor activity
inhibitory efficacy (MDA-MB-231 Xenograft; PO 10 mg/kg/day): equivalent to 100 mg/kg/day of curcumin
tumor weight lighter than that of the control group (MDA-MB-231 Xenograft; PO 50 mg/kg/day): 60%
inhibition of MDA-MB-231 tumor growth (MDA-MB-231 Xenograft; PO 5, 10, 25 and 50 mg/kg/day): dose- and time-dependent inhibition
body weight, behavior change and blood chemistry (serology detection) (MDA-MB-231 Xenograft; treated vs untreated control group during antitumor evaluation): no significant difference
